Patent publication US10995068B2, “Synthetic sphingolipid-like molecules, drugs, methods of their synthesis and methods of treatment” (The Regents of the University of California, priority 2015, dated 2021)

Legend:
[1] = system: normal human peripheral blood mononuclear cells (PBMC); test: Colony formation assay, PBMC; format: cell-based
Experimental: (§1) The difference in sensitivity stems from the inability of neoplastic cells to adapt to decreases of metabolism.
(§2) Cell analysis: Viability and 4F2hc expression are determined by vital dye exclusion and flow cytometry. Oxygen consumption is measured with an XF24 Extracellular Flux Analyzer (Seahorse Bioscience); values are normalized to total protein. Confocal microscopy is performed on either a Zeiss LSM780 or a Nikon Eclipse Ti; vacuolation was monitored using a Nikon TE2000-S equipped with DIC filters. Anchorage-independent growth of SW620 cells is measured in DMEM-10 containing 0.35% agarose with a 0.5% agarose bottom layer. PBMNCs are obtained from the normal blood donor program run by the CTSA-supported Institute for Clinical and Translational Science at UCI under IRB protocols 2015-1883 (Edinger) and 2001-2058 (ICTS). […] Plates were incubated at 37° C. in a humidified atmosphere containing 5% CO2 and colonies were counted after 12 days.
(§3) Cell culture and reagents. […] Cell viability was measured by vital dye exclusion using either propidium iodide or DAPI at 1 μg/ml. Analysis of cell surface 4F2hc levels with PE-conjugated anti-CD98 was restricted to viable cells as determined by DAPI exclusion. Anchorage-independent growth of SW620 cells was measured in DMEM-10 containing 0.35% low melt agarose with a 0.5% agarose bottom layer. […]

colon cancer cells SW620 = test: Colony formation assay, SW620; format: cell-based, human; conditions: anchorage-independent growth, colonies counted after 12 days
Experimental: as §1, §2, §3

PC3 cells = test: Phosphorylation in intact cells by UPLC-MS/MS, PC3; format: in vitro ADME, human; conditions: 10 μM, 16 h incubation, percent of total compound recovered by UPLC-MS/MS
Experimental: Mass spectrometric quantification: One million PC3 or 5 million SW620 cells in one well of a 6 well plate are treated with 10 μM FTY720 or 5 for 16 h. Media (100 μl) is removed from the well and combined with 100 μl of acetonitrile. Cells are collected by scraping, pelleted, and re-suspended in 100 μl of HPLC-grade water followed by the addition of 100 μl acetonitrile. Seventy-five nanograms of the compounds not being quantified (FTY720 and FTY720-P for analysis of the phosphorylation of 5, or 5 and 5-P for the analysis of FTY720/FYT720-P) is added to serve as an internal standard to allow correction for loss of compound during sample preparation. […] Insoluble material is again removed by centrifugation and the supernatant analyzed for compound content. Twenty microliters of this de-proteinated sample is analyzed by UPLC-MS/MS (Waters Micromass Quattro Premier XE) equipped with a C18 reversed phase column (Waters) using an acetonitrile (+0.2% acetic acid) gradient elution. […] The cone voltages are 30V for FTY720 and 5, and 20V for FTY720-P and 5-P. A standard curve is generated using pure compounds to allow for quantification; standard curves were linear from 50-1000 ng/ml with an R^2 of 0.98 or greater. […]

CCCCCCCCc1ccc([C@H]2CCN[C@@H]2CO)cc1.Cl [Compound 5, (2S,3R)-2-(hydroxymethyl)-3-(4-octylphenyl)Pyrrolidinium chloride]
sensitivity in colony formation assays [1]: resistant | sensitivity in colony formation assays (colon cancer cells SW620): highly sensitive | efficiency of phosphorylation in intact cells (PC3 cells): phosphorylated slightly more efficiently than FTY720
